Experimental findings from patent publication US20220387630A1, “METHOD FOR SCREENING ANTICANCER AGENT AND COMBINATION DRUG OF KINASE INHIBITORS FOR TREATMENT OF PANCREATIC CANCER” (National University Corporation Hokkaido University, priority 2020, published 2022) are described below.

Molecules are shown by their SMILES.

The test system of experiment [1] is MIA PaCa-2 cells. As to the kind of experiment: MTS cell viability assay in human pancreatic cancer cells. Format: cell-based. The conditions noted are these: in combination with Trametinib, 72 hours. On the procedure: Example 4 Evaluation of efficacy of kinase inhibitor with use of human pancreatic cancer cells Human pancreatic cancer cell line (MIA PaCa-2) was purchased from National Institute of RIKEN BioResource Research Center, and cultured in Dulbecco's Modified Eagle's Medium (Nacalai tesque) supplemented with 10% fetal bovine serum (Gibco) and 1% penicillin-streptomycin (Nacalai tesque) at 37° C. in the presence of 5% CO2.
Trametinib (DMSO only, 1 μM, 300 μM), Adavosertib (300 μM, 1 mM), AD80 (30 μM, 3 mM), Alisertib (30 μM, 1 mM) and BI-831266 (3 μM, 3 mM) was each prepared and diluted to 100-fold in the medium to produce a drug solution.
MIA PaCa-2 cells were seeded into a 96-well plate at 1000 cells/well (in 100 μL medium). After culturing for one day, 10 μL of the drug solution of Trametinib alone or Trametinib combined with another kinase inhibitor was added to the cells in each well on the 96-well plate (0.2% final concentration of DMSO). Each combination was tested in five wells. After the addition of the drug solution, the cells were cultured at 37° C. for 72 hours in the presence of 5% CO2, and then the cell viability was measured using MTS assay (CellTiter 96 (registered trademark), Promega). The viability is expressed as a ratio to that of a control (solvent only).

For experiment [2], the system named is 4-hit flies (non-GFP). Put plainly: Efficacy of kinase inhibitors on 4-hit fly survival rate (drug food). The note with it: used alone; 1 M Trametinib in food; reared at 25° C. for 13 days. Format: in vivo, Drosophila. The procedure: Trametinib (MEK inhibitor), Adavosertib (referred also to as MK-1775, WEE1 inhibitor), AD80 (FRK inhibitor), Y-27632 (ROCK inhibitor), Alisertib (AURKA inhibitor, the above all purchased from MedChem Express), BI-831266 (AURKB inhibitor, obtained from Boehringer Ingelheim) was each dissolved in DMSO (SIGMA) and stored at −20° C.
Agar (Wako), brewers' yeast (MP Bio), yeast extract (Sigma Aldrich), bacto casitone (BD), sucrose (Wako), glucose (Wako), MgCl2 (Wako) CaCl2 (Wako), Propionic acid (Wako), and Mold inhibitor (10% Methyl-4-hydroxy Benzoate in 95% Ethanol; Wako) were dissolved in ultrapure water to prepare a standard food. While kept at 50° C., the kinase inhibitor (Trametinib alone or a combination of Trametinib and another kinase inhibitor) dissolved in DMSO was added for mixing. The resulting solution was cooled to obtain a drug food. The final concentrations of the compounds in the food were […] for Trametinib, 100 μM for Adavosertib, 50 μM for AD80, 10 μM for Y-27632, and 100 μM for BI-831266.
The UAS-Ras^G12D, UAS-p53^shRNA, UAS-CycE, UAS-Med^shRNA fly produced in Example 1 was mated with a Ser-gal4 fly (Bloomington Drosophila Stock Center). […] The eggs were reared at 25° C. for 13 days, and survival rate of 4-hit flies (non-GFP) reared on each food was calculated by dividing the number of eclosed pupae by the total number of pupae.

On to `CC(C)n1nc(-c2ccc(NC(=O)Nc3cc(C(F)(F)F)ccc3F)cc2)c2c(N)ncnc21` [AD80], for which, in experiment [1], the “cell viability compared to that of Trametinib used alone” value is given as “greatly reduced the cell viability”.
Still for that read-out and setting: under `C=CCn1c(=O)c2cnc(Nc3ccc(N4CCN(C)CC4)cc3)nc2n1-c1cccc(C(C)(C)O)n1` [Adavosertib] stands “greatly reduced the cell viability”; under `COc1cc(Nc2ncc3c(n2)-c2ccc(Cl)cc2C(c2c(F)cccc2OC)=NC3)ccc1C(=O)O` [Alisertib], “greatly reduced the cell viability”.
On to `CC(=O)Nc1cccc(-n2c(=O)n(C3CC3)c(=O)c3c(Nc4ccc(I)cc4F)n(C)c(=O)c(C)c32)c1` [Trametinib], for which the “increase of survival rate of 4-hit flies (non-GFP)” value in experiment [2] is on record as 20%.
